From US7473697B2, “2-Oxo-piperidinyl- and 2-oxo-azepanyl alkanoic acid derivatives for the treatment of epilepsy and other neurological disorders” (UCB S.A., priority 2001, dated 2009)
Read-outs that look alike come from different tables or passages of the source. One block for each compound: values may come before it.

Key:
[1] = biological target: T1, Levetiracetam Binding Site (LBS) (Rattus norvegicus, UniProt Q02563); test: Competitive binding to levetiracetam binding site (LBS), radioligand [3H]-2-[4-(3-azidophenyl)-2-oxo-1-pyrrolidinyl]butanamide, cerebral cortex membranes
T1 construct: from tissue; host or cells: rat cerebral cortex crude membranes (male Sprague-Dawley)
Protocol: The inhibition constant (Ki) of a compound is determined in competitive binding experiments by measuring the binding of a single concentration of a radioactive ligand at equilibrium with various concentrations of the unlabeled test substance. The concentration of the test substance inhibiting 50% of the specific binding of the radioligand is called the IC50. The equilibrium dissociation constant Ki is proportional to the IC50 and is calculated using the equation of Cheng and Prusoff (Cheng Y. et al., Biochem. Pharmacol. (1972), 22, 3099-3108).
The concentration range usually encompasses 6 log units with variable steps (0.3 to 1 log). Assays are performed in mono- or duplicate, each Ki determination is performed on two different samples of test substance. Cerebral cortex from 200-250 g male Sprague-Dawley rats were homogenised using a Potter S homogeniser (10 strokes at 1,000 rpm; Braun, Germany) in 20 mmol/l Tris-HCl (pH 7.4), 250 mmol/l sucrose (buffer A); all operations were performed at 4° C. The homogenate was centrifuged at 30,000 g for 15 min. The crude membrane pellet obtained was resuspended in 50 mmol/1 Tris-HCl (pH 7.4), (buffer B) and incubated 15 min at 37° C., centrifuged at 30,000 g for 15 min and washed twice with the same buffer. The final pellet was resuspended in buffer A at a protein concentration ranging from 15 to 25 mg/ml and stored in liquid nitrogen.
Membranes (150-200 μg of protein/assay) are incubated at 4° C. for 120 min in 0.5 ml of a 50 mmol/l Tris-HCl buffer (pH 7.4) containing 2 mmol/l MgCl2, 1 to 2.10^−9 mol/l of [^3H]-2-[4-(3-azidophenyl)-2-oxo-1-pyrrolidinyl]butanamide (levetiracetam analog, a tritiated radioligand currently used for the labelling of LBS), and increasing concentrations of the test substance. The non specific binding (NSB) is defined as the residual binding observed in the presence of a concentration of reference substance (e.g. 10^−3 mol/l levetiracetam) that binds essentially all the receptors. Membrane-bound and free radioligands are separated by rapid filtration through glass fiber filters (equivalent to Whatman GF/C or GF/B; VEL, Belgium) pre-soaked in 0.1% polyethyleneimine and 10^−3 mol/l levetiracetam to reduce non specific binding. Samples and filters are rinsed by at least 6 ml of 50 mmol/l Tris-HCl (pH 7.4) buffer. […] The radioactivity trapped onto the filters is counted by liquid scintillation in a β-counter (Tri-Carb 1900 or TopCount 9206, Camberra Packard, Belgium, or any other equivalent counter). Data analysis is perfomed by a computerized non linear curve fitting method using a set of equations describing several binding models assuming populations of independent non-interacting receptors which obey to the law of mass.

[2] = tested on: sound-susceptible mice (audiogenic seizures, clonic convulsions); test: Audiogenic seizure test in sound-susceptible mice; assay type: in vivo; settings: for ED50: Mus musculus
Source text: The objective of this test is to evaluate the anticonvulsant potency of a compound in sound-susceptible mice, a genetic animal model with reflex seizures. In this model of primary generalised epilepsy, seizures are evoked without electrical or chemical stimulation and the seizure types are, at least in part, similar in their clinical phenomenology to seizures occurring in man (Löscher W. & Schmidt D., Epilepsy Res. (1998), 2, 145-181: Buchhalter J. R , Epilepsia (1993), 34, S31-S41).
Male or female genetically sound-sensitive mice (14-28 g; N=10), derived from a DBA strain originally selected by Dr. Lehmann of the Laboratory of Acoustic Physiology (Paris) and bred in the UCB Pharma Sector husbandry unit since 1978, were used. The experimental design consisted of several groups, one group receiving the vehicle control and the other groups different doses of the test-compound. The compounds were administered intraperitoneally 60 minutes before the induction of audiogenic seizures.
For testing, the animals were placed in small cages, one mouse per cage, in a sound-attenuated chamber. After a period of orientation of 30 seconds, the acoustic stimulus (90 dB, 10-20 kHz) was delivered for 30 seconds via loudspeakers positioned above each cage. During this interval, the mice were observed and the presence of the 3 phases of the seizure activity namely wild running, clonic and tonic convulsions, was recorded. The proportion of mice protected against wild running, clonic and tonic convulsions, respectively, was calculated.
For active compounds, an ED50 value, i.e. the dose (expressed in moles per kg of test animal) producing 50% protection relative to the control group, together with 95% confidence limits, was calculated using a Probit Analysis (SAS/STAT® Software, version 6.09, PROBIT procedure) of the proportions of protected mice for each of the 3 phases of the seizure activity.
In tables I-A and I-B the ED50 value (=AUD CC) for the inhibition of Clonic Convulsions in the Audiogenic seizure test are given. This test is a good animal model for the screening of anticonvulsant and/or antiepileptic compounds.

[3] = 7-ring compounds, rat cerebral cortex membranes
[4] = 7-ring compounds, intraperitoneally 60 minutes before induction, inactive = inactive at 1.0E−03
[5] = 6-ring compounds, rat cerebral cortex membranes
[6] = 6-ring compounds, intraperitoneally 60 minutes before induction, inactive = inactive at 1.0E−03

T1 sequence (Q02563 whole entry): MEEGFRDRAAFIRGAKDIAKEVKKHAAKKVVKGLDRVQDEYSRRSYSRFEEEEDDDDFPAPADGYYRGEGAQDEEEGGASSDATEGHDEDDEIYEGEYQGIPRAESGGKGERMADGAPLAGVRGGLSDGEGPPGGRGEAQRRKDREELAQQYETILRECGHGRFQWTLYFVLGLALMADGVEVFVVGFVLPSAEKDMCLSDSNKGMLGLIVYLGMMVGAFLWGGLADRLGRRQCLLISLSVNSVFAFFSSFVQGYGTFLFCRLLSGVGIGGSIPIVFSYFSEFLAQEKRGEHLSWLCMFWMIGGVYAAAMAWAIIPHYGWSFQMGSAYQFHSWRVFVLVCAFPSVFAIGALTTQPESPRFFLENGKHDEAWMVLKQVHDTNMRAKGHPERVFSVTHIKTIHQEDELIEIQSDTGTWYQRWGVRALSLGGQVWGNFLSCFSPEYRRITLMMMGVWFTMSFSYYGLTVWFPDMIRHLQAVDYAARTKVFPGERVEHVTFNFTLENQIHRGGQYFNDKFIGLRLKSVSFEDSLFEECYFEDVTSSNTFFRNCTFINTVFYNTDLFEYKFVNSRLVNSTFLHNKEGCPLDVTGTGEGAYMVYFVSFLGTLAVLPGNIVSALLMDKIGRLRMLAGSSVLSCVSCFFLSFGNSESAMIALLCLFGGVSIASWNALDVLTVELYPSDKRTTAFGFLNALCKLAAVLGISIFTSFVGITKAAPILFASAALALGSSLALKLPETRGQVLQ

SMILES: CCC(C(N)=O)N1CCC(CI)CCC1=O (single isomer, unassigned) [Compound 17, 2-[5-(iodomethyl)-2-oxo-1-azepanyl]butanamide]
Ki [1, 3]: > 3.16 µM

SMILES: CCC(C(N)=O)N1CCC(CI)CCC1=O (single isomer, unassigned) [Compound 18, 2-[5-(iodomethyl)-2-oxo-1-azepanyl]butanamide]
Ki [1, 3]: 0.0316 to 0.316 µM
AUD CC (ED50 for inhibition of Clonic Convulsions in the Audiogenic seizure test) [2, 4]: 0.00013 mol/kg

SMILES: CCC(C(N)=O)N1CCC(CI)CCC1=O (single isomer, unassigned) [Compound 19, 2-[5-(iodomethyl)-2-oxo-1-azepanyl]butanamide]
Ki [1, 3]: > 3.16 µM
AUD CC (ED50 for inhibition of Clonic Convulsions in the Audiogenic seizure test) [2, 4]: Inactive

SMILES: CCC(C(N)=O)N1CCC(CI)CCC1=O (single isomer, unassigned) [Compound 20, 2-[5-(iodomethyl)-2-oxo-1-azepanyl]butanamide]
Ki [1, 3]: 0.316 to 3.16 µM
AUD CC (ED50 for inhibition of Clonic Convulsions in the Audiogenic seizure test) [2, 4]: 0.00056 mol/kg

SMILES: CC[C@@H](C(N)=O)N1CC(CI)CCC1=O (stereo partly drawn) [Compound 5, (2S)-2-[5-(iodomethyl)-2-oxo-1-piperidinyl]butanamide]
Ki [1, 5]: 0.316 to 3.16 µM
ED50 ([2]; ip, read-out: AUD CC (ED50 for inhibition of Clonic Convulsions in the Audiogenic seizure test), 6-ring compounds, intraperitoneally 60 minutes before induction, inactive = inactive at 1.0E−03): 160 µmol/kg

SMILES: CC[C@@H](C(N)=O)N1CC(CI)CCC1=O (stereo partly drawn) [Compound 6, (2S)-2-[5-(iodomethyl)-2-oxo-1-piperidinyl]butanamide]
Ki [1, 5]: 0.0316 to 0.316 µM
AUD CC (ED50 for inhibition of Clonic Convulsions in the Audiogenic seizure test) [2, 6]: 0.0002 mol/kg

Ki [1, 5]: 0.0316 to 0.316 µM
SMILES: CC[C@@H](C(N)=O)N1CC(CN=[N+]=[N-])CCC1=O (stereo partly drawn) [Compound 7, (2S)-2-[5-(azidomethyl)-2-oxo-1-piperidinyl]butanamide]
AUD CC (ED50 for inhibition of Clonic Convulsions in the Audiogenic seizure test) ([2]; ip): 0.00012 mol/kg

Ki [1, 5]: 0.316 to 3.16 µM
SMILES: CC[C@@H](C(N)=O)N1CC(CN=[N+]=[N-])CCC1=O (stereo partly drawn) [Compound 8, (2S)-2-[5-(azidomethyl)-2-oxo-1-piperidinyl]butanamide]
AUD CC (ED50 for inhibition of Clonic Convulsions in the Audiogenic seizure test) ([2]; ip): 0.00028 mol/kg

SMILES: CCC(C(N)=O)N1CC(c2ccccc2)CCC1=O (stereo not shown) [Compound 9, 2-(2-oxo-5-phenyl-1-piperidinyl)butanamide]
AUD CC (ED50 for inhibition of Clonic Convulsions in the Audiogenic seizure test) ([2]; ip): 0.00028 mol/kg

SMILES: CCC(C(N)=O)N1CC(c2ccccc2)CCC1=O (stereo not shown) [Compound 10, 2-(2-oxo-5-phenyl-1-piperidinyl)butanamide]
AUD CC (ED50 for inhibition of Clonic Convulsions in the Audiogenic seizure test) ([2]; ip): Inactive

Ki [1, 5]: 0.0316 to 0.316 µM
SMILES: CCC(C(N)=O)N1CC(c2ccccc2)CCC1=O (stereo not shown) [Compound 11, 2-(2-oxo-5-phenyl-1-piperidinyl)butanamide]
AUD CC (ED50 for inhibition of Clonic Convulsions in the Audiogenic seizure test) ([2]; ip): 7e-05 mol/kg

SMILES: CCC(C(N)=O)N1CC(c2ccccc2)CCC1=O (stereo not shown) [Compound 12, 2-(2-oxo-5-phenyl-1-piperidinyl)butanamide]
AUD CC (ED50 for inhibition of Clonic Convulsions in the Audiogenic seizure test) ([2]; ip): Inactive

SMILES: CC[C@@H](C(N)=O)N1CCC(CI)CC1=O (stereo partly drawn) [Compound 13, (2S)-2-[4-(iodomethyl)-2-oxo-1-piperidinyl]butanamide]
Ki [1, 5]: 0.0316 to 0.316 µM
AUD CC (ED50 for inhibition of Clonic Convulsions in the Audiogenic seizure test) [2, 6]: 0.00011 mol/kg

SMILES: CC[C@H](C(N)=O)N1CCC(CI)CC1=O (stereo partly drawn) [Compound 14, (2R)-2-[4-(iodomethyl)-2-oxo-1-piperidinyl]butanamide]
AUD CC (ED50 for inhibition of Clonic Convulsions in the Audiogenic seizure test) [2, 6]: Inactive

SMILES: CC[C@@H](C(N)=O)N1CCC(CI)CC1=O (stereo partly drawn) [Compound 15, (2S)-2-[4-(iodomethyl)-2-oxo-1-piperidinyl]butanamide]
PKi [1, 5]: +++ (+++ = 6.5 ≦ pKi < 7.5)
AUD CC (ED50 for inhibition of Clonic Convulsions in the Audiogenic seizure test) [2, 6]: 0.00025 mol/kg

SMILES: CC[C@H](C(N)=O)N1CCC(CI)CC1=O (stereo partly drawn) [Compound 16, (2R)-2-[4-(iodomethyl)-2-oxo-1-piperidinyl]butanamide]
AUD CC (ED50 for inhibition of Clonic Convulsions in the Audiogenic seizure test) [2, 6]: Inactive

Ki ([1]; reference): 0.794 µM
SMILES: CC[C@@H](C(N)=O)N1CCCC1=O [levetiracetam, (S)-(−)-α-ethyl-2-oxo-1-pyrrolidineacetamide, reference compound]
ED50 ([2]; reference compound, clonic convulsions, audiogenic seizure test, read-out: ED50 CC): 180 µmol/kg
